Results as given in patent US9169252B2 (BRISTOL-MYERS SQUIBB COMPANY, priority 2014, dated 2015).
Read-outs that look alike come from different tables or passages of the source.

Columns and labels:
IRAK4 = IRAK4 (Homo sapiens (Human), UniProt Q9NWZ3); assay: IRAK4 Inhibition Assay; assay type: biochemical; details: ATP 500 μM, read-out: IRAK4 IC50
Method in brief: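 IRAK4 combined with fluorescent substrate and compounds, reacted 60 min at room temperature, stopped with 35 mM EDTA. Substrate and phosphorylated product separated electrophoretically on a Caliper LabChip 3000 mobility-shift reader.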

[1] = tested on: TLR2 induced IL-6 in peripheral blood mononuclear cells (PBMCs); assay: PBMC TLR2 Induced IL-6 Assay; assay type: cell-based, human; details: IL-6 by ELISA; for EC50: read-out: Cell EC50; for IC50: read-out: Cell IC50
Method in brief: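 Lipoteichoic acid at 10 µg/ml served as TLR2 stimulus for 5 hours, following a 30-minute compound pretreatment at 37° C. Cells were Ficoll-isolated human PBMCs, 250000 cells/well, cultured in RPMI plus 10% heat-inactivated FCS.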

[2] = Homo sapiens, PBMC, PBMC TLR2 Induced IL-6 Assay, lipoteichoic acid stimulation
[3] = Homo sapiens, PBMC, human PBMCs, lipoteichoic acid stimulated

IRAK4, sequence (Q9NWZ3 whole entry, species assumed): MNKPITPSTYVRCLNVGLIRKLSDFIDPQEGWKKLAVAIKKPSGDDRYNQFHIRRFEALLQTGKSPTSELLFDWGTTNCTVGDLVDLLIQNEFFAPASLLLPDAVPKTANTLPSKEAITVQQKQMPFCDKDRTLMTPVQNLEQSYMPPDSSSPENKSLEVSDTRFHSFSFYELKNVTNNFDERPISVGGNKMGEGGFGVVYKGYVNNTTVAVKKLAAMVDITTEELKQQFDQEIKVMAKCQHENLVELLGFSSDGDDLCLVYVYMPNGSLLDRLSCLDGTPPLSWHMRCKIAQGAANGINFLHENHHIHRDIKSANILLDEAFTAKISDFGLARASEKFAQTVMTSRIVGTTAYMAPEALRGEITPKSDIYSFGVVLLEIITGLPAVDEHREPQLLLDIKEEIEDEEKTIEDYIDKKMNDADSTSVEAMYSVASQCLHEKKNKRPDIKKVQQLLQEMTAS

Row | Compound | IC50 (IRAK4; IRAK4 Inhibition Assay) | EC50 [1, 2] | IC50 [1, 2] | also measured
1 | CNC(=O)[C@H]1CC[C@H](NC(=O)c2cnc(-n3ncc4cc(C#N)cnc43)cc2NC(C)C)CC1 [Example 160, 6-(5-cyano-1H-pyrazolo[3,4-b]pyridin-1-yl)-4-(isopropylamino)-N-((trans)-4-(methylcarbamoyl)cyclohexyl)nicotinamide] | 5.8 nM | 176 nM | – | –
2 | CC(C)Nc1cc(-n2ncc3cc(C#N)c(N)nc32)ncc1C(=O)NC1CCCCC1 [Example 324] | 6.6 nM | – | 278 nM | –
3 | CC(C)Nc1cc(-n2ncc3cc(C#N)cnc32)ncc1C(=O)NCC(F)C1(O)COC1 (stereo not drawn) [Example 249] | 6.1 nM | – | – | IC50 ([1]; PBMC TLR2 Induced IL-6 Assay, lipoteichoic acid stimulation): 355 nM
4 | CC(C)Nc1cc(-n2ncc3cc(C#N)cnc32)ncc1C(=O)NCCC(C)(C)O [Example 146, 6-(5-cyano-1H-pyrazolo[3,4-b]pyridin-1-yl)-N-(3-hydroxy-3-methylbutyl)-4-(isopropylamino)nicotinamide] | 6.5 nM | 267 nM | – | –
5 | CC(C)Nc1cc(-n2ccc3cc(C#N)cnc32)ncc1C(=O)N[C@H]1CC[C@](O)(c2nccs2)CC1 [Example 175, 6-(5-cyano-1H-pyrrolo[2,3-b]pyridin-1-yl)-N-((1s,4s)-4-hydroxy-4-(thiazol-2-yl)cyclohexyl)-4-(isopropylamino)nicotinamide] | 5 nM | 113 nM | – | –
6 | CC[C@@H](CO)Nc1cc(-n2ncc3cc(Cl)cnc32)ncc1C(=O)NC[C@@H](F)C(C)(C)O [Example 589] | – | – | – | IC50 (IRAK4; IRAK4 0.6 nM): 4.1 nM; IC50 [1, 3]: 361 nM
7 | CC(C)Nc1cc(-n2ncc3cc(C#N)cnc32)ncc1C(=O)NCCC1(O)CC1 [Example 331] | 6.2 nM | – | 57 nM | –
8 | CC(C)(O)[C@H](F)CNC(=O)c1cnc(-n2ncc3cc(C#N)cnc32)cc1N[C@H]1CCN(c2ncc(F)cn2)C1 [Example 533] | – | – | – | IC50 (IRAK4; IRAK4 0.6 nM): 10.3 nM; EC50 [1, 3]: 194 nM
9 | CCCCNC(=O)c1cnc(-n2ncc3cc(C#N)cnc32)cc1N[C@@H](C)CO [Example 319] | 6.5 nM | – | 191 nM | –

Continued, in another order:

Row | IC50 (IRAK4; IRAK4 Inhibition Assay) | Compound | EC50 [1, 2] | IC50 [1, 2] | also measured
10 | 2.4 nM | C[C@@H](CF)Nc1cc(-n2ccc3cc(C#N)cnc32)ncc1C(=O)NC[C@@H](F)C(C)(C)O [Example 117, 6-(5-cyano-1H-pyrrolo[2,3-b]pyridin-1-yl)-N—((R)-2-fluoro-3-hydroxy-3-methylbutyl)-4-(((S)-1-fluoropropan-2-yl)amino)nicotinamide] | 28 nM | – | –
11 | 4.7 nM | CC(C)Nc1cc(-n2ncc3cc(C#N)cnc32)ncc1C(=O)NCCc1c[nH]cn1 [Example 311] | – | 347 nM | –
12 | 1.9 nM | CC(C)(O)[C@H](F)CNC(=O)c1cnc(-n2ccc3cncnc32)cc1NC1CC1 [Example 41, (R)-4-(cyclopropylamino)-N-(2-fluoro-3-hydroxy-3-methylbutyl)-6-(7H-pyrrolo[2,3-d]pyrimidin-7-yl)nicotinamide] | 220 nM | 220 nM | –
13 | 4.1 nM | CC(C)Nc1cc(-n2ncc3cc(C#N)cnc32)ncc1C(=O)NCCC1CC1 [Example 302] | – | 148 nM | –
14 | 4.6 nM | CC(C)Nc1cc(-n2ccc3cc(C#N)cnc32)ncc1C(=O)N[C@H]1CC[C@](C)(O)CC1 [Example 99, 6-(5-cyano-1H-pyrrolo[2,3-b]pyridin-1-yl)-N-((trans)-4-hydroxy-4-methylcyclohexyl)-4-(isopropylamino)nicotinamide] | 223 nM | – | –
15 | 4.5 nM | CCNc1cc(-n2ccc3cc(C(N)=O)cnc32)ncc1C(=O)NC[C@@H](F)C(C)(C)O [Example 123, (R)-1-(4-(Ethylamino)-5-((2-fluoro-3-hydroxy-3-methylbutyl)carbamoyl)pyridin-2-yl)-1H-pyrrolo[2,3-b]pyridine-5-carboxamide] | 128 nM | – | –
16 | 1.9 nM | CC(C)Nc1cc(-n2ccc3cnc(NCC(C)(C)O)nc32)ncc1C(=O)NC[C@@H](F)C(C)(C)O [Example 187, (R)—N-(2-Fluoro-3-hydroxy-3-methylbutyl)-6-(2-((2-hydroxy-2-methylpropyl)amino)-7H-pyrrolo[2,3-d]pyrimidin-7-yl)-4-(isopropylamino)nicotinamide] | 86 nM | – | –
